32 compounds from patent publication US9073974B2, “RGD-containing cyclic peptides” (The Regents of the University of California, priority 2009, dated 2015) can be followed below.

Numbered stars: 1 amine (or outer) side, 2 acyl side, 3 side chain; on linkers, the order of the positions; unused ones are H or OH. Bridge positions count the residues as written; N and C are the ends. Square brackets hold non-standard residues; d marks the D form. Peptide text beside a SMILES is read from it. * marks the point of attachment. Pro(5R-Ph) = O=C(O)[C@@H]1CC[C@H](c2ccccc2)N1; N(CH2CH2COOH)Gly = O=C(O)CCNCC(=O)O; X2 = O=C(C1(N[*:1])CCC(O)CC1)[*:2]; dPen = CC(C)(S)[C@@H](N)C(=O)O; dTle = CC(C)(C)[C@@H](N)C(=O)O; Carboxymethyl = O=C(O)C*; βAla = NCCC(=O)O; Sar = CNCC(=O)O

Chain of αvβ3 integrin (P06756 31-889 limits assumed): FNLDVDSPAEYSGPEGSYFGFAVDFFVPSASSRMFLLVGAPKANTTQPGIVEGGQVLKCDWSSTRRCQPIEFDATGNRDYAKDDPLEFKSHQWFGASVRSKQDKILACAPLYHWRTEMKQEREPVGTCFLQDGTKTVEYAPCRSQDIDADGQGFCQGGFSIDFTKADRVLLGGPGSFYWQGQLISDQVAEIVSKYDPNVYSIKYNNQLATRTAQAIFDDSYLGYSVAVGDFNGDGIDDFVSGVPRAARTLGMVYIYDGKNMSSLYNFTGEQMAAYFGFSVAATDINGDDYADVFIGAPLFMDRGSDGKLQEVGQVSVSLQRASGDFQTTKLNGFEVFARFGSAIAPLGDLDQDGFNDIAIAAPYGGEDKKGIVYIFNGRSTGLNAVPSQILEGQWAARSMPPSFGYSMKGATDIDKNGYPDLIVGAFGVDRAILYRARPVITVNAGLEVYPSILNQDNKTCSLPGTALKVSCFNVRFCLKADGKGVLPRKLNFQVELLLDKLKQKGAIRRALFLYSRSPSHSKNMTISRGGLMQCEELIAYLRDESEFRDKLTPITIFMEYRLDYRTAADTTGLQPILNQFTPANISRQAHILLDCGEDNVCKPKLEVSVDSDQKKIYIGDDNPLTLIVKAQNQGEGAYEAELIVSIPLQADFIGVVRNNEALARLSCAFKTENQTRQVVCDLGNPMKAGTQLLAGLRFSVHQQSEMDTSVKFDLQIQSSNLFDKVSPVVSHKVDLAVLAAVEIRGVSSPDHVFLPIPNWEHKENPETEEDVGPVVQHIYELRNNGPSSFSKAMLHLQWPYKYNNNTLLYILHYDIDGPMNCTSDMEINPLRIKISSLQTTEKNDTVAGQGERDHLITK
Chain of αvβ3 integrin (P06756 891-1048 partner limits assumed): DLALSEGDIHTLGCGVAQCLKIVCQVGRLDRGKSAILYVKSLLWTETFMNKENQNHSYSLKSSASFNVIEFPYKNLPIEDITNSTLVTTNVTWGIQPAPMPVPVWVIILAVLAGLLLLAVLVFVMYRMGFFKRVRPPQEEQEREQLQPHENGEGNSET
Chain of αvβ3 integrin (P05106 27-788): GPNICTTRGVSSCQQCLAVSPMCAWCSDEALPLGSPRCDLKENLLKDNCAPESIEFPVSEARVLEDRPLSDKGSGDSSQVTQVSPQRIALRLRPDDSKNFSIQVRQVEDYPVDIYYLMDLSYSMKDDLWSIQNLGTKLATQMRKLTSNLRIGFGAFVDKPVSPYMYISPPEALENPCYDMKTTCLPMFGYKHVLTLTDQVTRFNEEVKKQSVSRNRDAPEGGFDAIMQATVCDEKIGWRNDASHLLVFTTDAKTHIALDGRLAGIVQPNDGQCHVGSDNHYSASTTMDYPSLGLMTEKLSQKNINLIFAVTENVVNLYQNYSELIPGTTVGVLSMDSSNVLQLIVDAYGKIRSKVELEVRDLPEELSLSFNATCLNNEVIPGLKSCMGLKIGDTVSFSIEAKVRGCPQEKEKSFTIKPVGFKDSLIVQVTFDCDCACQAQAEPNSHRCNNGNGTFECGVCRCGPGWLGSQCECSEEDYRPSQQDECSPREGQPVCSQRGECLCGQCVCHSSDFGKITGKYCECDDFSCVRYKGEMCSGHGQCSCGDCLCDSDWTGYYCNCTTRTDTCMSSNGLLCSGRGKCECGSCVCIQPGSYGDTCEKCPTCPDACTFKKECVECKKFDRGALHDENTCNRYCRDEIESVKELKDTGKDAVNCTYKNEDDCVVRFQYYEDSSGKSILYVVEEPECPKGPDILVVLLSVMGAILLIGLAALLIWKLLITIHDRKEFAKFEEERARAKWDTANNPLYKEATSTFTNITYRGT

The first assay concerns the target αvβ3 integrin (Homo sapiens, UniProt P05106+P06756). The assay is described as follows: Inhibition of biotinylated LXW7 binding to αvβ3-K562 cells (flow cytometry). More on the design: expressed in transfected cells; host or cells: K562 (gift of Dr. Yoshikazu Takada, UC Davis). Conditions: LXW9-92: inhibiting the binding of biotinylated LXW7 against αvβ3-K562 cells, LXW7 as internal reference. Here is the method: The apparent IC50 were calculated using Graph Prism software (≦www.graphpad.com≧).
The samples were analyzed with Coulter XL-MCL flow cytometry. The histogram and mean fluorescence intensity (MFI) were determined. The apparent Kd, IC50 were calculated using Graph Prism software (≦www.graphpad.com≧).
For orientation: Flow cytometry measures light scatter and fluorescence of single cells or particles in a stream.
The IC50 is the concentration that inhibits the measured activity by half. Regarding `CC(C)[C@H]1NC(=O)[C@@H](CC(=O)O)NC(=O)[C@H](CC(=O)O)NC(=O)CNC(=O)[C@H](CCCNC(=N)N)NC(=O)CNC(=O)[C@@H](N)CSSC[C@@H](C(N)=O)NC1=O` [LXW11, CGRGDdvC] (H-CGRGD[dD][dV]C-NH2; disulfide 1-8), the IC50 was over 20 µM.
`CC[C@@H](C)[C@H]1NC(=O)C2(CCC(O)CC2)NC(=O)[C@H](CC(=O)O)NC(=O)CNC(=O)[C@H](CCCNC(=N)N)NC(=O)CN(C)C(=O)[C@H](N)CSSC[C@H](C(N)=O)NC1=O` (some centres unmarked) [LXW32, c-Sar-RGD-Ahch-i c] (H-[dC][Sar]RGD[X2][dI][dC]-NH2; disulfide 1-8) showed an IC50 of over 20 µM.
The same measure, in the same setting: as for `CN1CC(=O)N[C@@H](CCCNC(=N)N)C(=O)NCC(=O)N[C@@H](CC(=O)O)C(=O)NC2(CCC(O)CC2)C(=O)N[C@H](C(C)(C)C)C(=O)N[C@@H](C(N)=O)CSSC[C@@H](N)C1=O` (some centres unmarked) [LXW33, c-Sar-RGD-Ahch-DBug-c] (H-[dC][Sar]RGD[X2][dTle][dC]-NH2; disulfide 1-8), the figure is over 20 µM.
As for `C=CC[C@H]1NC(=O)[C@@H](CC(=O)O)NC(=O)[C@H](CC(=O)O)NC(=O)CNC(=O)[C@H](CCCNC(=N)N)NC(=O)CNC(=O)[C@H](N)CSSC[C@@H](C(N)=O)NC1=O` [LXW34, cGRGDd-DAgl-C], the IC50 is over 20 µM.
`CN1CC(=O)N[C@@H](CCCNC(=N)N)C(=O)NCC(=O)N[C@@H](CC(=O)O)C(=O)N[C@H](CC(=O)O)C(=O)NC2(CCOCC2)C(=O)N[C@H](C(N)=O)CSSC[C@H](N)C1=O` [LXW36, C-Sar-RGDd-Actp-C]: the IC50 was over 20 µM.
As for `N=C(N)NCCC[C@@H]1NC(=O)CNC(=O)[C@H](N)CSSC[C@@H](C(N)=O)NC(=O)C2(CCOCC2)NC(=O)[C@@H](CC(=O)O)NC(=O)[C@H](CC(=O)O)NC(=O)CNC1=O` [LXW41, cGRGDd-Actp-C], the IC50 is over 20 µM.
On to `CC[C@@H](C)[C@H]1NC(=O)C2(CCC(O)CC2)NC(=O)[C@H](CC(=O)O)NC(=O)CNC(=O)[C@H](CCCNC(=N)N)NC(=O)CN(C)C(=O)[C@H](N)CSSC[C@@H](C(N)=O)NC1=O` (some centres unmarked) [LXW42, c-Sar-RGD-Ahch-iC] (H-[dC][Sar]RGD[X2][dI]C-NH2; disulfide 1-8), for which the half-inhibitory concentration (IC50) is over 20 µM.
Regarding `CN1CC(=O)N[C@@H](CCCNC(=N)N)C(=O)NCC(=O)N[C@@H](CC(=O)O)C(=O)N[C@@H](Cc2ccc(OCC(=O)O)cc2)C(=O)N[C@H](CC(=O)O)C(=O)N[C@H](C(N)=O)CSSC[C@H](N)C1=O` [LXW44, C-Sar-RGD-Bmp-dC] (H-C[Sar]RGDY(Carboxymethyl)[dD]C-NH2; disulfide 1-8), the 50% inhibitory concentration (IC50) is over 20 µM.
The same measure, in the same setting: as for `N=C(N)NCCC[C@@H]1NC(=O)CNC(=O)[C@@H](N)CSSC[C@H](C(N)=O)NC(=O)[C@@H]2CC[C@H](c3ccccc3)N2C(=O)[C@@H](CCC(=O)O)NC(=O)[C@H](CC(=O)O)NC(=O)CNC1=O` [LXW45, CGRGDe-Ppca-c] (H-CGRGD[dE][Pro(5R-Ph)][dC]-NH2; disulfide 1-8), the figure is over 20 µM; as for `N=C(N)NCCC[C@@H]1NC(=O)CNC(=O)[C@@H](N)CSSC[C@H](C(N)=O)NC(=O)[C@@H]2CC[C@H](c3ccccc3)N2C(=O)CN(CCC(=O)O)C(=O)[C@H](CC(=O)O)NC(=O)CNC1=O` [LXW46, CGRGD-Nglu-Ppca-c] (H-CGRGD[N(CH2CH2COOH)Gly][Pro(5R-Ph)][dC]-NH2; disulfide 1-8), over 20 µM.

The same assay, now with this note: LXW9-92: inhibiting the binding of biotinylated LXW7 against αvβ3-K562 cells; class symbols.
In turn, `C=CC[C@H]1NC(=O)[C@@H](CC(=O)O)NC(=O)[C@H](CC(=O)O)NC(=O)CNC(=O)[C@H](CCCNC(=N)N)NC(=O)CNC(=O)[C@H](N)CSSC[C@H](C(N)=O)NC1=O` [LWX16, cGRGDd-DAgl-c] came in with an IC50 of 1 to 10 µM.
For `C#CC[C@H]1NC(=O)[C@@H](CC(=O)O)NC(=O)[C@H](CC(=O)O)NC(=O)CNC(=O)[C@H](CCCNC(=N)N)NC(=O)CNC(=O)[C@H](N)CSSC[C@H](C(N)=O)NC1=O` [LWX17, cGRGDd-DPra-c], the IC50 is 1 to 10 µM.
Regarding `CC(C)[C@H]1NC(=O)[C@@H](CC(=O)O)NC(=O)[C@H](CC(=O)O)NC(=O)CNC(=O)[C@H](CCCNC(=N)N)NC(=O)CNC(=O)[C@@H](N)CSSC[C@H](C(N)=O)NC1=O` [LXW9, CGRGDdvc] (H-CGRGD[dD][dV][dC]-NH2; disulfide 1-8), the IC50 was 1 to 10 µM.
The same measure, in the same setting: as for `CC(C)[C@H]1NC(=O)[C@@H](CC(=O)O)NC(=O)[C@H](CC(=O)O)NC(=O)CNC(=O)[C@H](CCCNC(=N)N)NC(=O)CNC(=O)[C@H](N)CSSC[C@@H](C(N)=O)NC1=O` [LXW10, cGRGDdvC] (H-[dC]GRGD[dD][dV]C-NH2; disulfide 1-8), the figure is 1 to 10 µM; as for `CC(=O)N[C@@H]1CSSC[C@H](C(N)=O)NC(=O)[C@@H](C(C)C)NC(=O)[C@@H](CC(=O)O)NC(=O)[C@H](CC(=O)O)NC(=O)CNC(=O)[C@H](CCCNC(=N)N)NC(=O)CNC1=O` [LXW12, Acetyl-cGRGDdvc] (Ac-[dC]GRGD[dD][dV][dC]-NH2; disulfide 1-8), under 1 µM; as for `CC(C)[C@H]1NC(=O)[C@@H](CC(=O)O)NC(=O)[C@H](CC(=O)O)NC(=O)CNC(=O)[C@H](CCCNC(=N)N)NC(=O)[C@@H](C)NC(=O)[C@H](N)CSSC[C@H](C(N)=O)NC1=O` [LXW13, caRGDdvc] (H-[dC][dA]RGD[dD][dV][dC]-NH2; disulfide 1-8), 1 to 10 µM.
Same read-out and setting: as for `CC(C)[C@H]1NC(=O)[C@@H](CC(=O)O)NC(=O)[C@H](CC(=O)O)NC(=O)CNC(=O)[C@H](CCCNC(=N)N)NC(=O)CN(C)C(=O)[C@H](N)CSSC[C@H](C(N)=O)NC1=O` [LXW14, c-Sar-RGDdvc] (H-[dC][Sar]RGD[dD][dV][dC]-NH2; disulfide 1-8), the figure is 1 to 10 µM.
The compound `CC(C)[C@H]1NC(=O)[C@@H](CC(=O)O)NC(=O)[C@H](CC(=O)O)NC(=O)CNC(=O)[C@H](CCCNC(=N)N)NC(=O)CCNC(=O)[C@H](N)CSSC[C@H](C(N)=O)NC1=O` [LXW15, c-β-alanine-RGDdvc] (H-[dC][βAla]RGD[dD][dV][dC]-NH2; disulfide 1-8) returned an IC50 of 1 to 10 µM.
The compound `CC(C)(C)[C@H]1NC(=O)[C@@H](CC(=O)O)NC(=O)[C@H](CC(=O)O)NC(=O)CNC(=O)[C@H](CCCNC(=N)N)NC(=O)CNC(=O)[C@H](N)CSSC[C@H](C(N)=O)NC1=O` [LXW18, cGRGDd-DBug-c] registered an IC50 of under 1 µM.
Still for that read-out and setting: the same measure for `CC(C)[C@H]1NC(=O)[C@@H](CC(=O)O)NC(=O)[C@H](CC(=O)O)NC(=O)CNC(=O)[C@H](CCCNC(=N)N)NC(=O)CNC(=O)[C@H](N)C(C)(C)SSC(C)(C)[C@H](C(N)=O)NC1=O` [LXW19, DPen-GRGDdv-DPen] (H-[dPen]GRGD[dD][dV][dPen]-NH2; disulfide 1-8): 1 to 10 µM; for `CC(C)[C@H]1NC(=O)[C@@H](CC(=O)O)NC(=O)[C@H](CC(=O)O)NC(=O)CNC(=O)[C@H](CCCNC(=N)N)NC(=O)CNC(=O)[C@H](N)C(C)(C)SSC[C@H](C(N)=O)NC1=O` [LXW20, DPen-GRGDdvc] (H-[dPen]GRGD[dD][dV][dC]-NH2; disulfide 1-8): 1 to 10 µM; for `CC(C)[C@H]1NC(=O)[C@@H](CC(=O)O)NC(=O)[C@H](CC(=O)O)NC(=O)CNC(=O)[C@H](CCCNC(=N)N)NC(=O)CNC(=O)[C@H](N)CSSC(C)(C)[C@H](C(N)=O)NC1=O` [LXW21, cGRGDdv-DPen] (H-[dC]GRGD[dD][dV][dPen]-NH2; disulfide 1-8): 1 to 10 µM.
Still for that read-out and setting: the same measure for `CC(C)[C@@H]1C(=O)N[C@@H](C(N)=O)CSSC[C@@H](N)C(=O)NCC(=O)N[C@@H](CCCNC(=N)N)C(=O)NCC(=O)N[C@@H](CC(=O)O)C(=O)N[C@H](CC(=O)O)C(=O)N1C` [LXW22, cGRGDd-D(NMe)Val-c]: under 1 µM; for `CC(C)[C@@]1(C)NC(=O)[C@@H](CC(=O)O)NC(=O)[C@H](CC(=O)O)NC(=O)CNC(=O)[C@H](CCCNC(=N)N)NC(=O)CNC(=O)[C@H](N)CSSC[C@H](C(N)=O)NC1=O` [LXW23, cGRGDd-D(CaMe)Val-c]: over 10 µM.
`CC[C@H]1NC(=O)[C@@H](CC(=O)O)NC(=O)[C@H](CC(=O)O)NC(=O)CNC(=O)[C@H](CCCNC(=N)N)NC(=O)CNC(=O)[C@H](N)CSSC[C@H](C(N)=O)NC1=O` [LXW25, cGRGDd-DAbu-c] yielded an IC50 of under 1 µM.
Same read-out and setting: as for `CC[C@@H](C)[C@H]1NC(=O)[C@@H](CC(=O)O)NC(=O)[C@H](CC(=O)O)NC(=O)CNC(=O)[C@H](CCCNC(=N)N)NC(=O)CNC(=O)[C@H](N)CSSC[C@H](C(N)=O)NC1=O` [LXW26, cGRGDdic] (H-[dC]GRGD[dD][dI][dC]-NH2; disulfide 1-8), the figure is 1 to 10 µM; as for `C#CC[C@H]1NC(=O)[C@@H](CC(=O)O)NC(=O)[C@H](CC(=O)O)NC(=O)CNC(=O)[C@H](CCCNC(=N)N)NC(=O)CN(C)C(=O)[C@@H](N)CSSC[C@@H](C(N)=O)NC1=O` [LXW35, C-Sar-RGDd-DPra-C], over 10 µM.
The same measure, in the same setting: the same measure for `C#CC[C@H]1NC(=O)[C@@H](CC(=O)O)NC(=O)[C@H](CC(=O)O)NC(=O)CNC(=O)[C@H](CCCNC(=N)N)NC(=O)CN(C)C(=O)[C@H](N)CSSC[C@@H](C(N)=O)NC1=O` [LXW37, c-Sar-RGDd-DPra-C]: over 10 µM; for `N=C(N)NCCC[C@@H]1NC(=O)CNC(=O)[C@@H](N)CSSC[C@@H](C(N)=O)NC(=O)[C@@H](Cc2cscn2)NC(=O)[C@@H](CC(=O)O)NC(=O)[C@H](CC(=O)O)NC(=O)CNC1=O` [LXW39, CGRGDd-DTha-C]: over 10 µM; for `C#CC[C@H]1NC(=O)[C@@H](CC(=O)O)NC(=O)[C@H](CC(=O)O)NC(=O)CNC(=O)[C@H](CCCNC(=N)N)NC(=O)CNC(=O)[C@H](N)CSSC[C@@H](C(N)=O)NC1=O` [LXW40, cGRGDd-DPra-C]: 1 to 10 µM.
`N=C(N)NCCC[C@@H]1NC(=O)CNC(=O)[C@@H](N)CSSC[C@@H](C(N)=O)NC(=O)[C@@H](Cc2cccc3ccccc23)NC(=O)[C@@H](CC(=O)O)NC(=O)[C@H](CC(=O)O)NC(=O)CNC1=O` [LXW47, CGRGDd-DNal1-C] displayed an IC50 of 1 to 10 µM.
Same read-out and setting: the same measure for `N=C(N)NCCC[C@@H]1NC(=O)CNC(=O)[C@H](N)CSSC[C@H](C(N)=O)NC(=O)[C@@H](Cc2csc3ccccc23)NC(=O)[C@@H](CC(=O)O)NC(=O)[C@H](CC(=O)O)NC(=O)CNC1=O` [LXW48, cGRGDd-DBta-c]: under 1 µM.
